This is an account of results in US9334279B2, “Hepatitis C virus inhibitors” (BRISTOL-MYERS SQUIBB COMPANY, priority 2012, dated 2016).

Where two headings read alike, the source gives them in different places.

For series [1] the following is noted: rcm bond, 15-membered ring, Hoveyda-Grubbs II.
Another series deals with HCV GT1a(H77) replicon. The series can be described thus: HCV replicon luciferase reporter assay, genotype 1a. It counts as cell-based, HCV genotype 1a. Particulars: Hepatitis C virus, 72 h, HUH-7 cells, Renilla luciferase, 3 days incubation. A digest of the protocol: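 Huh-7 cells stably carried a GT1a(H77) Renilla luciferase replicon with NS3 P1496L and NS5A S2204I adaptive mutations. Luminescence was read after 2 h with 7.5 μM EnduRen, and EC50 came from a four-parameter logistic fit; CC50 came from multiplexed Cell Titer-Blue (8 h).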
In general terms: Replicon systems follow genome replication, usually without infectious particles.

A further series deals with HCV GT1b(Con1) replicon. The series is described as follows: HCV replicon luciferase reporter assay, genotype 1b. It counts as cell-based, HCV genotype 1b. Particulars: Hepatitis C virus, 72 h, HUH-7 cells, Renilla luciferase, 3 days incubation. A digest of the protocol: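 HUH-7 cells stably carrying a Con1 GT1b replicon with Renilla luciferase and Ser1179Ile adaptive mutation; 3.0×10^3 cells/well, DMEM 4% FCS, 0.5% DMSO, twenty-point 3-fold titration, 3 days 37 °C. Luminescence 2 h after 7.5 μM EnduRen; EC50 by four-parameter logistic fit. CC50 from multiplexed Cell Titer-Blue fluorescence (8 h).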

Broadly, the EC50 is the concentration needed to bring the measured effect to its halfway point.

In the case of `CC1CC/C=C\[C@@H]2C[C@@]2(C(=O)NS(=O)(=O)C2(C)CC2)NC(=O)[C@@H]2C[C@@H](O)CN2C(=O)[C@@H](NC(=O)OC(C)(C)C)[C@H](C)C1` (some centres unmarked), the ring closure, isolated yield in series [1] (from C=CCCC(C)C[C@@H](C)[C@H](NC(=O)OC(C)(C)C)C(=O)N1C[C@H](O)C[C@H]1C(=O)N[C@]1(C(=O)NS(=O)(=O)C2(C)CC2)C[C@H]1C=C, 1,2-dichloroethane, 8.8 mM, 80.0 °C, 2.0 h) was 70%.
Compound `CC[C@@H]1CC(C)CC/C=C\[C@@H]2C[C@@]2(C(=O)NS(=O)(=O)C2CC2)NC(=O)[C@@H]2C[C@@H](O)CN2C(=O)[C@H]1NC(=O)OC(C)(C)C` (some centres unmarked) returned a ring closure, isolated yield in series [1] (from C=CCCC(C)C[C@@H](CC)[C@H](NC(=O)OC(C)(C)C)C(=O)N1C[C@@H](O)CC1C(=O)N[C@]1(C(=O)NS(=O)(=O)C2CC2)C[C@H]1C=C, dichloroethane, 26.6 mM, 95.0 °C, 16.0 h) of 47%.
As to `CC[C@@H]1C[C@H](C)CC/C=C\[C@@H]2C[C@@]2(C(=O)NS(=O)(=O)C2CC2)NC(=O)[C@@H]2C[C@@H](Oc3ccc(-c4nccs4)cn3)CN2C(=O)[C@H]1NC(=O)OC(C)(C)C(F)(F)F` [Compound 1063, 1,1,1-trifluoro-2-methylpropan-2-yl ((2R,6S,7R,9R,13aS,14aR,16aS,Z)-14a-((cyclopropylsulfonyl)carbamoyl)-7-ethyl-9-methyl-5,16-dioxo-2-((5-(thiazol-2-yl)pyridin-2-yl)oxy)-1,2,3,5,6,7,8,9,10,11,13a,14,14a,15,16,16a-hexadecahydrocyclopropa[e]pyrrolo[1,2-a][1,4]diazacyclopentadecin-6-yl)carbamate], the 50% effective concentration (EC50) in the series on HCV GT1a(H77) replicon (read-out: LE_1a (EC50)) was 16.7 nM; in the series with HCV GT1a(H77) replicon (read-out: LE_1a (EC50, range)) it was 5.01 to 35 nM; in the series on HCV GT1b(Con1) replicon (read-out: LE_1b (EC50)), 3.51 nM; in the series on HCV GT1b(Con1) replicon (read-out: LE_1b (EC50, range)), 1.01 to 5 nM.
Turning to `C[C@@H]1CC/C=C\[C@@H]2C[C@@]2(C(=O)NS(=O)(=O)C2(C)CC2)NC(=O)[C@@H]2C[C@@H](Oc3ccc(-c4nccs4)cn3)CN2C(=O)[C@@H](NC(=O)OC(C)(C)C(F)(F)F)[C@H](C)C1` [Compound 1064, 1,1,1-trifluoro-2-methylpropan-2-yl ((2R,6S,7R,9R,13aS,14aR,16aS,Z)-7,9-dimethyl-14a-(((1-methylcyclopropyl)sulfonyl)carbamoyl)-5,16-dioxo-2-((5-(thiazol-2-yl)pyridin-2-yl)oxy)-1,2,3,5,6,7,8,9,10,11,13a,14,14a,15,16,16a-hexadecahydrocyclopropa[e]pyrrolo[1,2-a][1,4]diazacyclopentadecin-6-yl)carbamate], the EC50 was in the range of 1.01 to 5 nM in the series with HCV GT1a(H77) replicon (read-out: LE_1a (EC50, range)) and 0.1 to 0.5 nM in the series with HCV GT1b(Con1) replicon (read-out: LE_1b (EC50, range)).
